Consider 8 compounds from patent US10633379B2, “Bromodomain inhibitors” (AbbVie Inc., priority 2016, dated 2020).

The AUC is the area under the concentration-time curve, a measure of exposure. Usually Ki stands for a measure of affinity in units of concentration, obtained from inhibition or displacement.

Molecules are shown by their SMILES.

The subject of data set [1] is SKM-1_FP1 xenograft tumors. In words: Xenograft tumor growth inhibition assay, SKM-1 (AML). The class given is in vivo, Female SCID Beige mice. The following applies: mouse SKM-1 xenograft, oral.
Assay in data set [2]: as above
In kind it is in vivo, Female SCID Beige mice. The following applies: female, SCID Beige, in vivo, mouse SKM-1 xenograft, oral, read-out: AUC, mouse efficacy, AML (SKM-1).

Data set [3] deals with LNCaP-FGC xenograft tumors. In words: Xenograft tumor growth inhibition assay, LNCaP (prostate). In kind it is in vivo, Male NSG mice. The following applies: mouse LNCaP xenograft, oral. The protocol:
(§1) The effect of compound of Example 32, 35 and Compound X to inhibit the growth of SKM-1_FP1 and LNCaP-FGC xenograft tumors was evaluated. Female SCID Beige mice (Charles River) were utilized for the SKM-1_FP1 flank xenograft model. Male NSG mice (JAX Labs) were used for the LNCaP-FGC study. Cells were suspended in PBS, mixed with Matrigel (phenol red free, Becton Dickinson Biosciences Discovery Labware) in a ratio of 1:4 (V/V) and inoculated subcutaneously into the flank (five million cells per site) of the mice. Inoculated mice were randomized into groups and treatment was initiated when mean tumor volume was 0.2-0.25 cm^3. The compounds were administered orally in (volume %): 1.5% DMSO, 30% PEG 400, and 68.5% Phosol 53 MCT. Tumor growth in the flank was assessed by measuring tumor size with calipers and calculating volume using the formula (L×W^2/2). Study groups were terminated prior to tumor volume reaching 3 cm^3. Inhibition of tumor growth was assessed at the time the vehicle-treated group was terminated by calculating the ratio of the mean volume of the test drug group to the mean volume of the untreated (control) group (T/C) and calculating percent tumor growth inhibition (% TGI).

Assay in data set [4]: as above
In kind it is in vivo, Male NSG mice. The following applies: male, NSG, in vivo, mouse LNCaP xenograft, oral, read-out: AUC, mouse efficacy, Prostate (LNCaP). The protocol: as §1

Data set [5] can be described thus: Fourteen day rat toxicology study, maximum tolerated exposure. The following applies: for AUC at 14 day: po. How it is done:
Compounds were dosed orally once daily, in Sprague-Dawley rats.

A further data set deals with BRD4 (BDI_K57-E168) (Homo sapiens (Human), UniProt O60885). The experiment in a line: TR-FRET bromodomain binding assay, BRD4 BDI. The following applies: mean Ki, calculated from IC50, probe Kd and probe concentration. The method in brief: (§2)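 Probe displacement measured by TR-FRET after 1 h at room temperature, in 20 mM sodium phosphate pH 6.0 and 2% DMSO. BDI used 12 nM protein with 100 nM probe, BDII 4 nM with 30 nM probe, each with 1 nM europium antibody. Ki derived from fitted IC50, probe Kd and probe level.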

For the next data set, the target named is BRD4 (BDII_E352-M457) (Homo sapiens (Human), UniProt O60885). In words: TR-FRET bromodomain binding assay, BRD4 BDII. The following applies: mean Ki, calculated from IC50, probe Kd and probe concentration. The method in brief:
as §2

Where [6] appears, read: Sprague-Dawley, rat, in vivo, 30 mg/kg.
[7] abbreviates: Sprague-Dawley, rat, in vivo, 14 day.

As to `CCNC(=O)c1cc2c(-c3cc(C(C)(C)O)ccc3Oc3c(C)cc(F)cc3C)cn(C)c(=O)c2[nH]1` [Example 35, N-ethyl-4-[2-(4-fluoro-2,6-dimethylphenoxy)-5-(2-hydroxypropan-2-yl)phenyl]-6-methyl-7-oxo-6,7-dihydro-1H-pyrrolo[2,3-c]pyridine-2-carboxamide], in data set [1] (dose 4.7 mg/kg), the “% TGI, AML (SKM-1)” value came out at 74%. Also, the AUC in data set [2] (dose 4.7 mg/kg) came to 840 ng·h/mL; in data set [4] (dose 4.7 mg/kg), 1100 ng·h/mL. The “% TGI, Prostate (LNCaP)” value in data set [3] (dose 4.7 mg/kg) was 64%. In data set [5] (setting [6]), the AUC at 14 day came to 27500 ng·h/mL.
On to `CCS(=O)(=O)Nc1ccc(Oc2ccc(F)cc2F)c(-c2cn(C)c(=O)c3[nH]ccc23)c1` [Compound X, N-[4-(2,4-difluorophenoxy)-3-(6-methyl-7-oxo-6,7-dihydro-1H-pyrrolo[2,3-c]pyridin-4-yl)phenyl]ethanesulfonamide, reference compound], for which the “% TGI, AML (SKM-1)” value in data set [1] (dose 1 mg/kg) came to 76%. Also, the AUC in data set [2] (dose 1 mg/kg) and in data set [4] (dose 1 mg/kg) was 1200 ng·h/mL in each case. In addition, the Ki on BRD4 (BDI_K57-E168) is 2.09 nM; at BRD4 (BDII_E352-M457), 0.952 nM. Further, the “% TGI, Prostate (LNCaP)” value in data set [3] (dose 1 mg/kg) is listed as 64%. In data set [5] (Sprague-Dawley, rat, in vivo, 1 mg/kg), this compound had an AUC at 14 day of 725 ng·h/mL. The “AUC ratio (rat maximum tolerated exposure/mouse efficacious exposure) Prostate (LNCaP)” value in data set [5] (exposure margin versus mouse LNCaP xenograft) worked out at 0.6x. Besides, the “AUC ratio (rat maximum tolerated exposure/mouse efficacious exposure) AML (SKM-1)” value in data set [5] (exposure margin versus mouse SKM-1 xenograft) is given as 0.6x.
In the case of `Cc1cccc(C)c1Oc1ccc(C(C)(C)O)cc1-c1cn(C)c(=O)c2[nH]c(C(=O)NC(C)(C)C)cc12` [Example 32, N-tert-butyl-4-[2-(2,6-dimethylphenoxy)-5-(2-hydroxypropan-2-yl)phenyl]-6-methyl-7-oxo-6,7-dihydro-1H-pyrrolo[2,3-c]pyridine-2-carboxamide], the “% TGI, AML (SKM-1)” value in data set [1] (dose 9.4 mg/kg) turned out to be 76%. Also, the exposure (AUC) in data set [2] (dose 9.4 mg/kg) amounted to 5000 ng·h/mL; in data set [4] (dose 30 mg/kg), 12600 ng·h/mL. Moreover, the Ki on BRD4 (BDI_K57-E168) is 599 nM; at BRD4 (BDII_E352-M457), 2.8 nM. Also, in data set [3] (dose 30 mg/kg), the “% TGI, Prostate (LNCaP)” value was 60%. Moreover, the “AUC ratio (rat maximum tolerated exposure/mouse efficacious exposure) AML (SKM-1)” value in data set [5] (setting [7]) was 14x. Moreover, the “AUC ratio (rat maximum tolerated exposure/mouse efficacious exposure) Prostate (LNCaP)” value in data set [5] (setting [7]) worked out at 5.5x. Besides, the exposure (AUC) at 14 day in data set [5] (setting [6]) was determined as 69200 ng·h/mL.
On to `CCNC(=O)c1cc2c(-c3cc(C(C)(C)O)ccc3Oc3c(C)cc(F)cc3C(F)F)cn(C)c(=O)c2[nH]1` [Example 98, 4-{2-[2-(difluoromethyl)-4-fluoro-6-methylphenoxy]-5-(2-hydroxypropan-2-yl)phenyl}-N-ethyl-6-methyl-7-oxo-6,7-dihydro-1H-pyrrolo[2,3-c]pyridine-2-carboxamide], for which the figures for the Ki on BRD4 (BDI_K57-E168) and at BRD4 (BDII_E352-M457) were 682 nM and 9.6 nM, respectively.
Take `CCNC(=O)c1cc2c(-c3cc(C(C)(O)CF)ccc3Oc3c(C)cc(Cl)cc3C)cn(C)c(=O)c2[nH]1` (stereo not drawn) [Example 88, 4-[2-(4-chloro-2,6-dimethylphenoxy)-5-(1-fluoro-2-hydroxypropan-2-yl)phenyl]-N-ethyl-6-methyl-7-oxo-6,7-dihydro-1H-pyrrolo[2,3-c]pyridine-2-carboxamide]: the figures for the Ki at BRD4 (BDI_K57-E168) and at BRD4 (BDII_E352-M457) were 389 nM and 1.1 nM, respectively.
The corresponding values for `CCNC(=O)c1cc2c(-c3cc(C(C)(O)CC(C)C)cnc3Oc3c(C)cccc3C)cn(C)c(=O)c2[nH]1` (stereo not drawn) [Example 18, 4-[2-(2,6-dimethylphenoxy)-5-(2-hydroxy-4-methylpentan-2-yl)pyridin-3-yl]-N-ethyl-6-methyl-7-oxo-6,7-dihydro-1H-pyrrolo[2,3-c]pyridine-2-carboxamide] are 449 nM and 3.8 nM.
Regarding `CCNC(=O)c1cc2c(-c3cc(C(C)(C)O)ccc3Oc3c(C)cccc3F)cn(C)c(=O)c2[nH]1` [Example 81, N-ethyl-4-[2-(2-fluoro-6-methylphenoxy)-5-(2-hydroxypropan-2-yl)phenyl]-6-methyl-7-oxo-6,7-dihydro-1H-pyrrolo[2,3-c]pyridine-2-carboxamide], the Ki at BRD4 (BDI_K57-E168) was 43 nM; at BRD4 (BDII_E352-M457) it was 1.1 nM.
`CCNC(=O)c1cc2c(-c3cc(C(C)(C)O)ccc3C3=CCCC3)cn(C)c(=O)c2[nH]1` [Example 114, 4-[2-(cyclopent-1-en-1-yl)-5-(2-hydroxypropan-2-yl)phenyl]-N-ethyl-6-methyl-7-oxo-6,7-dihydro-1H-pyrrolo[2,3-c]pyridine-2-carboxamide]: the Ki was 96 nM on BRD4 (BDI_K57-E168) and 1.3 nM at BRD4 (BDII_E352-M457).
